The source of these data is patent US20260007733A1, “Specific Saccharide Fragment for Development of Vibrio Cholerae Vaccines” (priority 2024, published 2026).

In the experiment the test system is IgG antibodies in anti-sera immunized with the lipopolysaccharide of the V. cholerae O100 serotype. Put plainly: Glycan microarray screening of saccharide fragments with rabbit anti-sera. The format is binding. The following applies: rabbit sera diluted 1:200; goat anti-rabbit IgG secondary antibodies 1:400; FIG. 9. Here is the method:
Step 1: The obtained sugar fragment is dissolved in a 50 mM phosphate solution (pH=8.5), printed onto the microarray using a microarray spotter, and incubated at room temperature and 65% humidity overnight to covalently bind the saccharide fragment to the microarray; and after incubation, the microarray is quenched by treatment with a mixed solution of […] solution (pH=9) at 50° C. for 1 h.
Step 2: The glycan microarray is probed with diluted rabbit anti-sera and co-incubated to specifically bind IgG antibodies in the anti-sera to the saccharide fragment, and unbound serum antibodies are washed away; and subsequently, fluorescently labeled secondary antibodies (anti-IgG antibodies) are used to bind the IgG antibodies on the microarray and incubated, and unbound secondary antibodies are washed away.
Synthetic oligosaccharides and LPS were dissolved in a coupling buffer (50 mM sodium phosphate, pH=8.5) for printing onto a “CodeLink” slide (SurModics Co., Ltd.) using an RMA-Arrayer 96 (Rayme China). Then the slide was incubated overnight in a humidifying chamber at 26° C. and 55% humidity. The slide and the microarray were incubated in a quenching buffer ([…] ethanolamine) at 50° C. for 1 h. […]

With `CC(=O)NC1C(O)[C@H](NC(C)=O)C(C)O[C@H]1OCN` (stereo partly shown) [Compound 10], the “antigenicity / recognition by the antibodies (glycan microarray, fluorescence)” value is on record as “cannot be recognized by the antibodies”.
